# According to patent US10294202B2, “Pyrrolidinones as herbicides” (FMC Corporation, priority 2013, dated 2019):
# What was measured:
# pigweed = assay: Test A pre-/postemergence herbicide test; assay type: in vivo, Amaranthus retroflexus
# Method in brief: (§1)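 Directed soil spray to seeded pots (preemergence) or spray onto one- to two-leaf seedlings 2–10 cm tall (postemergence); loam/sand substrate throughout. Evaluated visually after about 10 days against untreated plants, 0 = no effect, 100 = complete control.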
# corn [1] = assay: Test C pre-/postemergence herbicide test; assay type: in vivo, Zea mays
# Method in brief: (§2)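 Two application timings ran in parallel with identically formulated test chemicals (non-phytotoxic solvent, surfactant included): spray on seeded loam–sand soil, and spray on emerged plants 2 to 18 cm high. Evaluation at 13 to 15 days compared each species with controls, rated from 0 up to 100.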
# corn [2] = assay: Test A pre-/postemergence herbicide test; assay type: in vivo, Zea mays; settings: Postemergence
# Method in brief: as §1
# barnyardgrass = assay: Test A pre-/postemergence herbicide test; assay type: in vivo, Echinochloa crus-galli
# Method in brief: as §1
# nutsedge, yellow = assay: Test C pre-/postemergence herbicide test; assay type: in vivo, Cyperus esculentus
# Method in brief: as §2
# morningglory = assay: Test C pre-/postemergence herbicide test; assay type: in vivo, Ipomoea coccinea
# Method in brief: as §2
# soybean = assay: Test C pre-/postemergence herbicide test; assay type: in vivo, Glycine max
# Method in brief: as §2
# blackgrass = assay: Test C pre-/postemergence herbicide test; assay type: in vivo, Alopecurus myosuroides
# Method in brief: as §2
# oilseed rape = assay: Test C pre-/postemergence herbicide test; assay type: in vivo, Brassica napus
# Method in brief: as §2
# lambsquarters = assay: Test C pre-/postemergence herbicide test; assay type: in vivo, Chenopodium album
# Method in brief: as §2
# ducksalad = assay: Test B flooded paddy test; assay type: in vivo, Heteranthera limosa; settings: 500 g ai/ha, Flood; scale of 0 to 100 where 0 is no effect and 100 is complete control
# Method in brief: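 2-leaf plants; flood 3 cm over soil; compound into paddy water; depth held. Greenhouse 13–15 d. Visual rating vs controls, 0 (no effect) to 100 (complete control); dash = not tested.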
# [3] = Postemergence, 125 g ai/ha, visual rating on 0 to 100 scale (0 no effect, 100 complete control), approx. 10 days
# [4] = Postemergence, 500 g ai/ha, 0 to 100 scale (0 no effect, 100 complete control)
# [5] = Preemergence, 125 g ai/ha, 0 to 100 scale where 0 is no effect and 100 is complete control
# [6] = Preemergence, 500 g ai/ha, visual rating on 0 to 100 scale (0 no effect, 100 complete control)
# [7] = Postemergence, 31 g ai/ha, scale 0 to 100 (0 no effect, 100 complete control)
# [8] = Postemergence, 62 g ai/ha, scale 0 (no effect) to 100 (complete control)
# [9] = Postemergence, 125 g ai/ha, scale 0 to 100 (0 no effect, 100 complete control)
# [10] = Postemergence, 250 g ai/ha, scale 0 to 100 (0 no effect, 100 complete control)
# [11] = Preemergence, 31 g ai/ha, scale 0 to 100, 0 is no effect and 100 is complete control
# [12] = Preemergence, 62 g ai/ha, scale 0 to 100 (0 no effect, 100 complete control)
# [13] = Preemergence, 125 g ai/ha, scale 0 to 100 (0 no effect, 100 complete control)
structure (smiles),measurement,setting,value
CN1CC(c2ccc(F)c(F)c2)C(C(=O)Nc2ccccc2F)C1=O (stereo not shown) [Compound 302],"Plant response rating, Pigweed",pigweed; [3],0
same,"Plant response rating, Pigweed",pigweed; [4],10
same,"Plant response rating, Pigweed",pigweed; [5],10
same,Pigweed plant response rating,pigweed; [6],60
same,"Plant response rating, Corn",corn [1]; [7],0
same,"Plant response rating, Corn",corn [1]; [8],0
same,"Plant response rating, Corn",corn [1]; [9],0
same,"Plant response rating, Corn",corn [1]; [10],0
same,Corn plant response rating,corn [1]; [11],0
same,Corn plant response rating,corn [1]; [12],0
same,"Plant response rating, Corn",corn [1]; [13],0
same,"Plant response rating (scale of 0 to 100), Corn","corn [1]; Preemergence, 250 g ai/ha",50
same,"Plant response rating, Corn","corn [2]; 125 g ai/ha, visual rating on 0 to 100 scale (0 no effect, 100 complete control), approx. 10 days",0
same,"Plant response rating, Corn","corn [2]; 500 g ai/ha, 0 to 100 scale (0 no effect, 100 complete control)",40
same,"Plant response rating, Barnyardgrass",barnyardgrass; [3],90
same,"Plant response rating, Barnyardgrass",barnyardgrass; [4],90
same,"Plant response rating, Barnyardgrass",barnyardgrass; [5],90
same,Barnyardgrass plant response rating,barnyardgrass; [6],90
same,"Plant response rating, Nutsedge, Yellow","nutsedge, yellow; [7]",0
same,"Plant response rating, Nutsedge, Yellow","nutsedge, yellow; [8]",0
same,"Plant response rating, Nutsedge, Yellow","nutsedge, yellow; [9]",0
same,"Plant response rating, Nutsedge, Yellow","nutsedge, yellow; [10]",20
same,"Nutsedge, Yellow plant response rating","nutsedge, yellow; [11]",0
same,"Nutsedge, Yellow plant response rating","nutsedge, yellow; [12]",0
same,"Plant response rating, Nutsedge, Yellow","nutsedge, yellow; [13]",0
same,"Plant response rating (scale of 0 to 100), Nutsedge, Yellow","nutsedge, yellow; Preemergence, 250 g ai/ha",10
same,"Plant response rating, Morningglory",morningglory; [7],10
same,"Plant response rating, Morningglory",morningglory; [8],15
same,"Plant response rating, Morningglory",morningglory; [9],50
same,"Plant response rating, Morningglory",morningglory; [10],25
same,Morningglory plant response rating,morningglory; [11],0
same,Morningglory plant response rating,morningglory; [12],0
same,"Plant response rating, Morningglory",morningglory; [13],0
same,"Plant response rating (scale of 0 to 100), Morningglory","morningglory; Preemergence, 250 g ai/ha",0
same,"Plant response rating, Soybean",soybean; [7],0
same,"Plant response rating, Soybean",soybean; [8],0
same,"Plant response rating, Soybean",soybean; [9],0
same,"Plant response rating, Soybean",soybean; [10],65
same,Soybean plant response rating,soybean; [11],0
same,Soybean plant response rating,soybean; [12],30
same,"Plant response rating, Soybean",soybean; [13],0
same,"Plant response rating (scale of 0 to 100), Soybean","soybean; Preemergence, 250 g ai/ha",0
same,"Plant response rating, Blackgrass",blackgrass; [7],0
same,"Plant response rating, Blackgrass",blackgrass; [8],0
same,"Plant response rating, Blackgrass",blackgrass; [9],0
same,"Plant response rating, Blackgrass",blackgrass; [10],5
same,Blackgrass plant response rating,blackgrass; [11],0
same,Blackgrass plant response rating,blackgrass; [12],30
same,"Plant response rating, Blackgrass",blackgrass; [13],60
same,"Plant response rating (scale of 0 to 100), Blackgrass","blackgrass; Preemergence, 250 g ai/ha",85
same,"Plant response rating, Oilseed Rape",oilseed rape; [7],0
same,"Plant response rating, Oilseed Rape",oilseed rape; [8],0
same,"Plant response rating, Oilseed Rape",oilseed rape; [9],40
same,"Plant response rating, Oilseed Rape",oilseed rape; [10],0
same,Oilseed Rape plant response rating,oilseed rape; [11],0
same,Oilseed Rape plant response rating,oilseed rape; [12],0
same,"Plant response rating, Oilseed Rape",oilseed rape; [13],0
same,"Plant response rating (scale of 0 to 100), Oilseed Rape","oilseed rape; Preemergence, 250 g ai/ha",10
same,"Plant response rating, Lambsquarters",lambsquarters; [7],10
same,"Plant response rating, Lambsquarters",lambsquarters; [8],20
same,"Plant response rating, Lambsquarters",lambsquarters; [9],60
same,"Plant response rating, Lambsquarters",lambsquarters; [10],70
same,Lambsquarters plant response rating,lambsquarters; [11],0
same,Lambsquarters plant response rating,lambsquarters; [12],0
same,"Plant response rating, Lambsquarters",lambsquarters; [13],60
same,"Plant response rating (scale of 0 to 100), Lambsquarters","lambsquarters; Preemergence, 250 g ai/ha",65
same,"Plant response rating, Ducksalad",ducksalad,98
